From patent US20240041877A1, “DOSAGE REGIME AND METHOD FOR TREATING PULMONARY ARTERIAL HYPERTENSION” (Altavant Sciences GmbH, priority 2019, published 2024)

Test: Study KAR5585-101 Part 1 (SAD): plasma pharmacokinetics after a single oral dose of KAR5585, fasting and fed (incl. dose proportionality and food effect)
Conditions: for AUC / AUC(0-inf) / concentration at 12 h / Cmax / Vd/F / half-life / Tmax: human, plasma, po; for AUC: AUC0-tau; for AUC(0-inf): AUC0-∞; for Vd/F: Vz/F
[1] = 400 mg, 400 mg KAR5585 single oral, fasted, Cohort 3A, Mean
[2] = 400 mg, 400 mg KAR5585 single oral, fed, Cohort 3B, Geo. Mean
[3] = 400 mg, 400 mg KAR5585 single oral, fed, Cohort 3B, Mean
[4] = 400 mg, Geometric Mean, Cohort 3A (Fasting), 400 mg KAR5585 single oral dose, fasting
[5] = 400 mg, Geometric Mean, Cohort 3B (Fed), 400 mg KAR5585 single oral dose, fed
[6] = 400 mg, 400 mg KAR5585 single oral, fasted, Cohort 3A, Geo. Mean
[7] = 700 mg, 700 mg KAR5585 single oral, fasted, Cohort 4, Geo. Mean
[8] = 700 mg, 700 mg KAR5585 single oral, fasted, Cohort 4, Mean
[9] = 1200 mg, 1200 mg KAR5585 single oral, fasted, Cohort 5, Geo. Mean
[10] = 1200 mg, 1200 mg KAR5585 single oral, fasted, Cohort 5, Mean
[11] = 2000 mg, 2000 mg KAR5585 single oral, fasted, Cohort 6, Geo. Mean
[12] = 2000 mg, 2000 mg KAR5585 single oral, fasted, Cohort 6, Mean

Description: Food effect was to be evaluated in Part 1, Period 2. Part 2 was permitted to begin before Part 1 was completed and, in each part, the data from each dose Cohort were to be reviewed for safety before the next dose Cohort was enrolled.
Part 1 had 6 Cohorts of 12 subjects each (for a total of 72 subjects) and Part 2 had 4 Cohorts of 12 subjects each (for a total of 48 subjects). In Part 1, the 12 subjects in Cohort 3 (400 mg)were studied twice, once under fasting conditions (Period 1) and once under fed conditions (Period 2) for food-effect assessment.
Pharmacokinetic data were to be summarized descriptively.

For CCOC(=O)[C@@H]1CC2(CCN(c3cc(O[C@H](c4ccc(Cl)cc4-c4ccccc4)C(F)(F)F)nc(N)n3)CC2)CN1 [KAR5585, (S)-ethyl 8-(2-amino-6-((R)-1-(5-chloro-[1,1′-biphenyl]-2-yl)-2,2,2-trifluoroethoxy)pyrimidin-4-yl)-2,8-diazaspiro[4.5]decane-3-carboxylate], which AUC [1] is on record?
Its AUC is 219 ng·h/mL.

What about the AUC [2] of the same compound?
The AUC was 854 ng·h/mL.

What about the AUC [3] of the same compound?
The AUC was 868 ng·h/mL.

And the AUC [4]?
The AUC was 176 ng·h/mL.

And the AUC [5]?
Its AUC is 854 ng·h/mL.

And the AUC(0-inf) [6]?
The AUC(0-inf) was 288 ng·h/mL.

And the AUC(0-inf) [1]?
Its AUC(0-inf) is 302 ng·h/mL.

And the AUC(0-inf) [2]?
Its AUC(0-inf) is 903 ng·h/mL.

And the AUC(0-inf) [3]?
Its AUC(0-inf) is 915 ng·h/mL.

What about the concentration at 12 h (400 mg, C12, 400 mg KAR5585 single oral, fasted, Cohort 3A, Geo. Mean) of the same compound?
The concentration at 12 h was 7.4 ng/mL.

And the concentration at 12 h (400 mg, C12, 400 mg KAR5585 single oral, fasted, Cohort 3A, Mean)?
Its concentration at 12 h is 7.45 ng/mL.

What about the concentration at 12 h (400 mg, C12, 400 mg KAR5585 single oral, fed, Cohort 3B, Geo. Mean) of the same compound?
The concentration at 12 h was 19.7 ng/mL.

And the concentration at 12 h (400 mg, C12, 400 mg KAR5585 single oral, fed, Cohort 3B, Mean)?
The concentration at 12 h was 21 ng/mL.

What about the Cmax [6] of the same compound?
The Cmax was 42 ng/mL.

What about the Cmax [1] of the same compound?
Its Cmax is 52.8 ng/mL.

And the Cmax [2]?
Its Cmax is 165 ng/mL.

What about the Cmax [3] of the same compound?
The Cmax was 169 ng/mL.

And the Cmax [4]?
The Cmax was 42 ng/mL.

And the Cmax [5]?
The Cmax was 165 ng/mL.

What about the Vd/F [6] of the same compound?
Its Vd/F is 8100 L.

And the Vd/F [1]?
The Vd/F was 8330 L.

And the Vd/F [2]?
The Vd/F was 2730 L.

What about the Vd/F [3] of the same compound?
Its Vd/F is 2780 L.

And the half-life (400 mg, t1 (t½, apparent terminal half-life), 400 mg KAR5585 single oral, fasted, Cohort 3A, Geo. Mean)?
The half-life was 4.04 h.

And the half-life (400 mg, t1 (t½, apparent terminal half-life), 400 mg KAR5585 single oral, fasted, Cohort 3A, Mean)?
The half-life was 4.08 h.

What about the half-life (400 mg, t1 (t½, apparent terminal half-life), 400 mg KAR5585 single oral, fed, Cohort 3B, Geo. Mean) of the same compound?
The half-life was 4.26 h.

And the half-life (400 mg, t1 (t½, apparent terminal half-life), 400 mg KAR5585 single oral, fed, Cohort 3B, Mean)?
Its half-life is 4.45 h.

What about the Tmax (400 mg, tmax, 400 mg KAR5585 single oral, fasted, Cohort 3A, Median) of the same compound?
Its Tmax is 2.07 h.

And the Tmax (400 mg, tmax, 400 mg KAR5585 single oral, fed, Cohort 3B, Median)?
Its Tmax is 3 h.

What about the AUC [7] of the same compound?
Its AUC is 362 ng·h/mL.

And the AUC [8]?
The AUC was 386 ng·h/mL.

And the AUC(0-inf) [7]?
Its AUC(0-inf) is 412 ng·h/mL.

What about the AUC(0-inf) [8] of the same compound?
Its AUC(0-inf) is 436 ng·h/mL.

What about the concentration at 12 h (700 mg, C12, 700 mg KAR5585 single oral, fasted, Cohort 4, Geo. Mean) of the same compound?
Its concentration at 12 h is 9.84 ng/mL.

What about the concentration at 12 h (700 mg, C12, 700 mg KAR5585 single oral, fasted, Cohort 4, Mean) of the same compound?
Its concentration at 12 h is 10.7 ng/mL.

What about the Cmax [7] of the same compound?
Its Cmax is 95.2 ng/mL.

And the Cmax [8]?
The Cmax was 99.4 ng/mL.

What about the Vd/F [7] of the same compound?
Its Vd/F is 8390 L.

And the Vd/F [8]?
Its Vd/F is 9120 L.

And the half-life (700 mg, t1 (t½, apparent terminal half-life), 700 mg KAR5585 single oral, fasted, Cohort 4, Geo. Mean)?
Its half-life is 3.42 h.

What about the half-life (700 mg, t1 (t½, apparent terminal half-life), 700 mg KAR5585 single oral, fasted, Cohort 4, Mean) of the same compound?
Its half-life is 3.46 h.

What about the Tmax (700 mg, tmax, 700 mg KAR5585 single oral, fasted, Cohort 4, Median) of the same compound?
Its Tmax is 1.75 h.

And the AUC [9]?
The AUC was 296 ng·h/mL.

What about the AUC [10] of the same compound?
The AUC was 364 ng·h/mL.

What about the AUC(0-inf) [9] of the same compound?
The AUC(0-inf) was 406 ng·h/mL.

And the AUC(0-inf) [10]?
Its AUC(0-inf) is 462 ng·h/mL.

What about the concentration at 12 h (1200 mg, C12, 1200 mg KAR5585 single oral, fasted, Cohort 5, Geo. Mean) of the same compound?
The concentration at 12 h was 11 ng/mL.

And the concentration at 12 h (1200 mg, C12, 1200 mg KAR5585 single oral, fasted, Cohort 5, Mean)?
Its concentration at 12 h is 11.8 ng/mL.

What about the Cmax [9] of the same compound?
Its Cmax is 68.1 ng/mL.

And the Cmax [10]?
Its Cmax is 83 ng/mL.

And the Vd/F [9]?
Its Vd/F is 14500 L.

And the Vd/F [10]?
The Vd/F was 16900 L.

What about the half-life (1200 mg, t1 (t½, apparent terminal half-life), 1200 mg KAR5585 single oral, fasted, Cohort 5, Geo. Mean) of the same compound?
The half-life was 3.4 h.

And the half-life (1200 mg, t1 (t½, apparent terminal half-life), 1200 mg KAR5585 single oral, fasted, Cohort 5, Mean)?
The half-life was 3.58 h.

What about the Tmax (1200 mg, tmax, 1200 mg KAR5585 single oral, fasted, Cohort 5, Median) of the same compound?
The Tmax was 2 h.

What about the AUC [11] of the same compound?
Its AUC is 638 ng·h/mL.

And the AUC [12]?
The AUC was 773 ng·h/mL.

What about the AUC(0-inf) [11] of the same compound?
The AUC(0-inf) was 667 ng·h/mL.

And the AUC(0-inf) [12]?
The AUC(0-inf) was 778 ng·h/mL.

And the concentration at 12 h (2000 mg, C12, 2000 mg KAR5585 single oral, fasted, Cohort 6, Geo. Mean)?
Its concentration at 12 h is 26.2 ng/mL.

What about the concentration at 12 h (2000 mg, C12, 2000 mg KAR5585 single oral, fasted, Cohort 6, Mean) of the same compound?
Its concentration at 12 h is 37.4 ng/mL.

What about the Cmax [11] of the same compound?
The Cmax was 95.1 ng/mL.

And the Cmax [12]?
Its Cmax is 104 ng/mL.

And the Vd/F [11]?
The Vd/F was 20600 L.

What about the Vd/F [12] of the same compound?
Its Vd/F is 25100 L.

What about the half-life (2000 mg, t1 (t½, apparent terminal half-life), 2000 mg KAR5585 single oral, fasted, Cohort 6, Geo. Mean) of the same compound?
The half-life was 4.76 h.

And the half-life (2000 mg, t1 (t½, apparent terminal half-life), 2000 mg KAR5585 single oral, fasted, Cohort 6, Mean)?
The half-life was 4.84 h.

And the Tmax (2000 mg, tmax, 2000 mg KAR5585 single oral, fasted, Cohort 6, Median)?
The Tmax was 2 h.

What about the Vd/F (range across dose levels, single oral KAR5585) of the same compound?
Its Vd/F is 5680 to 25100 L.

And the half-life (mean apparent elimination half-life, range across dose levels, single oral KAR5585 100-2000 mg)?
The half-life was 1.89 to 4.84 h.

What about the Tmax (median tmax, range across cohorts, single oral 100-2000 mg KAR5585, fasting cohorts) of the same compound?
The Tmax was 1.5 to 3 h.

And the “time concentrations remained above the LLOQ” value (single 100 mg KAR5585, fasting)?
Its value is “up to 4 hours”.

What about the “time concentrations remained above the LLOQ” value (single 200 mg KAR5585, fasting) of the same compound?
The value was “up to 12 hours”.

What about the “time concentrations remained above the LLOQ” value (single 700 mg KAR5585, fasting) of the same compound?
Its value is “up to 12 hours”.

What about the “time concentrations remained above the LLOQ” value (single 1200 mg KAR5585, fasting) of the same compound?
The value was “up to 12 hours”.

And the “dose proportionality of AUC0-inf and Cmax (power model, 95% CI of slope)” value (single dose range 100 to 2000 mg KAR5585, fasting)?
The value was “dose proportionality was not concluded”.
